# Laboratory results as given in patent publication US6544985B2, “Dihydro-benzo [b][1,4]diazepin-2-one derivatives” (Hoffman-La Roche Inc., priority 2001, dated 2003).
# What was measured:
# [1] = molecular target: T1, recombinant rat mGluR2 expressed in CHO cells (Rattus norvegicus, UniProt P31421); experiment: [3H]-LY354740 binding on mGlu2 transfected CHO cell membranes (displacement binding assay)
# T1 construct: expressed in transfected cells; vector pcDNA I-amp, construct pcD1mGR2
# T1 sequence (P31421 19-872): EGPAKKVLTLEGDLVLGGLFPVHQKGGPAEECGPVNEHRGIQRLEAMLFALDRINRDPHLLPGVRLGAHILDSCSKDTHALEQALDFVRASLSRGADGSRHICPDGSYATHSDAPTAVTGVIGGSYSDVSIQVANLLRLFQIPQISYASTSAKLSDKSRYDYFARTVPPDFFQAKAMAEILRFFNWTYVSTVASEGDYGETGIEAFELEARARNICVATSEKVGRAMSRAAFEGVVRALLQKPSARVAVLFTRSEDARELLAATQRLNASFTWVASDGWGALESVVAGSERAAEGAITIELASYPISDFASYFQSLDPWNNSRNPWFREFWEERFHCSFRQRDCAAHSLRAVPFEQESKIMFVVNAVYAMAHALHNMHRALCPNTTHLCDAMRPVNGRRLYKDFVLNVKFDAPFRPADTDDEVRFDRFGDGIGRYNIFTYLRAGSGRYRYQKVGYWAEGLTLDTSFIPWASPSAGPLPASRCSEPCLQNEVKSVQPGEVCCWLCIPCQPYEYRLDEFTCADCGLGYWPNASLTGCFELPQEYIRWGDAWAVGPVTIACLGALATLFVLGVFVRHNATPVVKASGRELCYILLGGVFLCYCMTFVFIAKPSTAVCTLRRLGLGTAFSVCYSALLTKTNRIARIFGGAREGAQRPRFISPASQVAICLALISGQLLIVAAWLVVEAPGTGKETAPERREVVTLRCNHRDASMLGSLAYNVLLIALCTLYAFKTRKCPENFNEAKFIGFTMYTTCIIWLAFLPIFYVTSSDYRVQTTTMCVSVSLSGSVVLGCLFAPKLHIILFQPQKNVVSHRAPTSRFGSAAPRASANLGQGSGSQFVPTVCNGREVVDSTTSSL
# Description: These values were obtained by indirect measurement of the affinity of the compounds for the recombinant rat mGluR2 expressed in CHO cells using a displacement binding assay with 3H-LY354740.
# Transfection and Cell Culture
# cDNA encoding the rat mGlu2 receptor protein in pBluescript II was obtained from Prof. S. Nakanishi (Kyoto, Japan), and subcloned into the eukaryotic expression vector pcDNA I-amp from Invitrogen (NV Leek, The Netherlands). This vector construct (pcD1mGR2) was co-transfected with a psvNeo plasmid encoding the gene for neomycin resistance, into CHO cells by a modified calcium phosphate method described by Chen & Okayama (1988). The cells were maintained in Dulbecco's Modified Eagle medium with reduced L-glutamine (2 mM final concentration) and 10% dialysed foetal calf serum from Gibco BRL (Basel, Switzerland). Selection was made in the presence of G-418 (1000 ug/ml final). Clones were identified by reverse transcription of 5 μg total RNA, followed by PCR using mGlu2 receptor specific primers 5′-[sequence]-3′ and 5′-[sequence]-3′ in 60 mM Tris HCl (pH 10), 15 mM (NH4)2SO4, 2 mM MgCl2, 25 units/ml Taq Polymerase with 30 cycles annealing at 60° C. for 1 min., extention at 72° C. for 30 s, and 1 min. 95° C. denaturation.
# Cells, cultured as above, were harvested and washed three times with cold PBS and frozen at −80° C. The pellet was resuspended in cold 20 mM HEPES-NaOH buffer containing 10 mM EDTA (pH 7.4), and homogenised with a polytron (Kinematica, AG, Littau, Switzerland) for 10 s at 10 000 rpm. After centrifugation for 30 min. at 4° C., the pellet was washed once with the same buffer, and once with cold 20 mM HEPES-NaOH buffer containing 0.1 mM EDTA, (pH 7.4). Protein content was measured using the Pierce method (Socochim, Lausanne, Switzerland) using bovine serum albumin as standard.
# After thawing, the membranes were resuspended in cold 50 mM Tris-HCl buffer containing 2 mM MgCl2 and 2 mM CaCl2, (pH 7) (binding buffer). The final concentration of the membranes in the assays was 25 µg protein/ml. Inhibition experiments were performed with membranes incubated with 10 nM [^3H]-LY354740 at room temperature, for 1 hour, in presence of various concentrations of the compound to be tested. Following the incubations, membranes were filtered onto Whatmann GF/C glass fiber filters and washed 5 times with cold binding buffer. Non specific binding was measured in the presence of 10 μM DCG IV. After transfer of the filters into plastic vials containing 10 ml of Ultima-gold scintillation fluid (Packard, Zürich, Switzerland), the radioactivity was measured by liquid scintillation in a Tri-Carb 2500 TR counter (Packard, Zürich, Switzerland).
# The inhibition curves were fitted with a four parameter logistic equation giving IC50 values, and Hill coefficients and the Ki values were calculated using the Cheng and Prusoff equation (Cheng, Y. and Prusoff, W. H., Biochem. Pharmacol. 1973, 22, 3099-3108). A small Ki value expresses high affinity of the compound towards the receptor.
Compound,Ki [1] [nM],melting point
"CN(C)c1cc2c(cc1-c1cccc(F)c1F)NC(=O)CC(c1cccc(-n3ccnn3)c1)=N2 [Example 8, 8-(2,3-Difluoro-phenyl)-7-dimethylamino-4-(3-[1,2,3]triazol-1-yl-phenyl)-1,3-dihydro-benzo[b][1,4]diazepin-2-one]",70,197 to 199 °C
COCCN(C)c1cc2c(cc1Cl)NC(=O)CC(c1cccc(-c3cc(C)no3)c1)=N2 [Example 11],25,182 °C
"CN(C)c1cc2c(cc1Cl)NC(=O)CC(c1cccc(-c3ccnn3C)c1)=N2 [Example 16, 8-Chloro-7-dimethylamino-4-[3-(2-methyl-2H-pyrazol-3-yl)-phenyl]-1,3-dihydro-benzo[b][1,4]diazepin-2-one]",23,225 °C
"CN(C)c1cc2c(cc1Cl)NC(=O)CC(c1cccc(-c3nc(CO)cs3)c1)=N2 [Example 19, 8-Chloro-7-dimethylamino-4-[3-(4-hydroxymethyl-thiazol-2-yl)-phenyl]-1,3-dihydro-benzo[b][1,4]diazepin-2-one]",30,134 °C (dec.)
"Cc1cc(-c2cccc(C3=Nc4cc(OCC(F)(F)F)c(-c5ccccc5F)cc4NC(=O)C3)c2)on1 [Example 24, 8-(2-Fluoro-phenyl)-4-[3-(3-methyl-isoxazol-5-yl)-phenyl]7-(2,2,2-trifluoro-ethoxy)-1,3-dihydro-benzo[b][1,4]diazepin-2-one]",30,218 to 220 °C
"CN(C)c1cc2c(cc1Cl)NC(=O)CC(c1cccc(-c3nc(CO)co3)c1)=N2 [Example 27, 8-Chloro-7-dimethylamino-4-[3-(4-hydroxymethyl-oxazol-2-yl)-phenyl]-1,3-dihydro-benzo[b][1,4]diazepin-2-one]",39,193 to 195 °C
"CCCN(C)c1cc2c(cc1Cl)NC(=O)CC(c1cccc(-n3nncc3CO)c1)=N2 [Example 29, 8-Chloro-7-(methyl-propyl-amino)-4-[3-(5-hydroxymethyl-[1,2,3]triazol-1-yl)-phenyl]-1,3-dihydro-benzo[b][1,4]diazepin-2-one]",30,178 °C (dec.)
"CCN(CC)c1cc2c(cc1Cl)NC(=O)CC(c1cccc(-n3nncc3CO)c1)=N2 [Example 30, 8-Chloro-7-(diethyl-amino)-4-[3-(5-hydroxymethyl-[1,2,3]triazol-1-yl)-phenyl]-1,3-dihydro-benzo[b][1,4]diazepin-2-one]",44,208 °C (dec.)
"O=C1CC(c2cccc(-n3nncc3CO)c2)=Nc2cc(N3CCCC3)c(Cl)cc2N1 [Example 32, 8-Chloro-4-[3-(5-hydroxymethyl-[1,2,3]triazol-1-yl)-phenyl]-7-pyrrolidin-1-yl-1,3-dihydro-benzo[b][1,4]diazepin-2-one]",19,193 to 197 °C
"CN(c1cc2c(cc1Cl)NC(=O)CC(c1cccc(-n3nncc3CO)c1)=N2)C1CC1 [Example 37, 8-Chloro-7-(cyclopropyl-methyl-amino)-4-[3-(5-hydroxymethyl-[1,2,3]triazol-1-yl)-phenyl]-1,3-dihydro-benzo[b][1,4]diazepin-2-one]",160,
"CN(C)c1cc2c(cc1Cl)NC(=O)CC(c1cccc(-n3cccn3)c1)=N2 [Example 52, 8-Chloro-7-dimethylamino-4-(3-pyrazol-1-yl-phenyl)-1,3-dihydro-benzo[b][1,4]diazepin-2-one]",110,231 to 234 °C
"CN(C)c1cc2c(cc1C(F)(F)F)NC(=O)CC(c1cccc(-n3nncc3CNC3CC3)c1)=N2 [Example 82, 4-[3-(5-Cyclopropylaminomethyl-[1,2,3]triazol-1-yl)-phenyl]-7-dimethylamino-8-trifluoromethyl-1,3-dihydro-benzo[b][1,4]diazepin-2-one]",49,
